Data taken from article PMC6390652 (Toxicological Sciences, 2018).
Where two headings read alike, the source gives them in different places.

How the values were obtained:
[1] = system: human GI microtissues (EpiIntestinal-FT, ileal); assay: Human GI microtissue barrier function assay; type: cell-based; conditions: for TEER (IC15): human microtissue, blinded, unit not given; for IC15: Homo sapiens
human GI microtissue [2] = assay: GI microtissue TEER response kinetics; type: cell-based
human GI microtissue [3] = assay: MTT viability assay; type: cell-based; conditions: Caco-2, read-out: MTT IC50
Caco-2 cells = conditions: for Caco-2 TEER IC15: Caco-2 transwell, top conc. 100 μM, unit inferred; for Caco-2 TEER IC15/Cmax: human
[4] = 96 h, read-out: Microtissue Exp 1 TEER IC15
[5] = read-out: Microtissue Exp 2 TEER IC15

| SMILES | IC15 [1, 4] [µM] | IC15 [1, 5] [µM] | IC50 (human GI microtissue [3]) [µM] | Caco-2 TEER IC15 (Caco-2 cells) [µM] | further results |
| --- | --- | --- | --- | --- | --- |
| CSCC[C@H](NC(=O)c1cc(NC[C@@H]2C[C@H](SC(=O)c3cccnc3)CN2)ccc1CCc1ccc(F)cc1)C(=O)OC(C)C [AZD3409] |  |  |  |  | TEER (IC15) [1]: 3.0E-06; TEER Diarrhea-Genic Prediction ([1]; scored with TEER IC15/Cmax ratio < 80): Active |
| CNC(=O)CN1CCC(Oc2cc3c(Nc4cccc(Cl)c4F)ncnc3cc2OC)CC1 [AZD8931] |  |  |  |  | TEER Diarrhea-Genic Prediction [1]: Active; TEER (IC15) [1]: 3.0E-9; TEER recovery after washout (human GI microtissue [2]; 100 μM for 3 days, then washout (first cycle)): quickly recovered TEER after washout; Effect on TEER during 3-day treatment period (human GI microtissue [2]; 100 μM, 3 days continuous, TEER measured daily): pronounced decrease in TEER; TEER recovery after second treatment cycle (human GI microtissue [2]; 100 μM, second treatment cycle): slower |
| CN(C)C/C=C/C(=O)Nc1cc2c(Nc3ccc(F)c(Cl)c3)ncnc2cc1O[C@H]1CCOC1 [Afatinib] | 6 | 8.5 | 30 | 9 |  |
| COc1cc2nc(N(C)CCCNC(=O)C3CCCO3)nc(N)c2cc1OC (stereo not drawn) [Alfuzosin] | > 100 | > 100 | > 100 |  | Caco-2 TEER IC15/Cmax (Caco-2 cells): 3132 |
| CCCCc1oc2ccccc2c1C(=O)c1cc(I)c(OCCN(CC)CC)c(I)c1 [Amiodarone] | 40 |  |  |  |  |
| CCOC(=O)C1=C(COCCN)NC(C)=C(C(=O)OC)C1c1ccccc1Cl (stereo not drawn) [Amlodipine] | 15 | 10 | 45 | 30 |  |
| CNC(=O)c1ccccc1Sc1ccc2c(/C=C/c3ccccn3)n[nH]c2c1 [Axitinib] | 1 | > 100 |  |  |  |
| CC(C)C[C@H](NC(=O)[C@H](Cc1ccccc1)NC(=O)c1cnccn1)B(O)O [Bortezomib] | 1 | 1 | > 100 | 1 |  |
| CCCCCOC(=O)Nc1nc(=O)n([C@@H]2O[C@H](C)[C@@H](O)[C@H]2O)cc1F [Capecitabine] | 1 | 1 | > 100 | > 100 |  |
| COc1cc2c(c(OC)c1OC)-c1ccc(OC)c(=O)cc1[C@@H](NC(C)=O)CC2 [Colchicine] | > 100 | 1 |  |  |  |
| C[C@@H](Oc1cc(-c2cnn(C3CCNCC3)c2)cnc1N)c1c(Cl)ccc(F)c1Cl [Crizotinib] | 9.5 | 9.5 | 22 | 8 |  |
| C[C@@H]1C[C@H]2[C@@H]3CCC4=CC(=O)C=C[C@]4(C)[C@@]3(F)[C@@H](O)C[C@]2(C)[C@@]1(O)C(=O)CO [Dexamethasone] | > 100 | > 100 | > 100 | > 100 |  |
| Cc1cccc([C@H](C)c2cnc[nH]2)c1C [Dexmedetomidine] | 40 | 40 | > 100 |  | Caco-2 TEER IC15/Cmax (Caco-2 cells): 21138 |
| CC(=O)Oc1cccc2c1C(=O)c1c(OC(C)=O)cc(C(=O)O)cc1C2=O [Diacerein] | 40 | 40 | 65 | > 100 |  |
| CC(=O)O[C@@]12CO[C@@H]1C[C@H](O)[C@@]1(C)C(=O)[C@H](O)C3=C(C)[C@@H](OC(=O)[C@H](O)[C@@H](NC(=O)OC(C)(C)C)c4ccccc4)C[C@@](O)([C@@H](OC(=O)c4ccccc4)[C@H]21)C3(C)C [Docetaxel] | 40 | 40 | 65 | > 100 |  |
| CN(CCOc1ccc(NS(C)(=O)=O)cc1)CCc1ccc(NS(C)(=O)=O)cc1 [Dofetilide] | > 100 | > 100 | > 100 | > 100 |  |

| SMILES | IC15 [1, 4] [µM] | IC15 [1, 5] [µM] | IC50 (human GI microtissue [3]) [µM] | Caco-2 TEER IC15 (Caco-2 cells) [µM] | further results |
| --- | --- | --- | --- | --- | --- |
| CC(C)(C)NC(=O)[C@H]1CC[C@H]2[C@@H]3CC[C@H]4NC(=O)C=C[C@]4(C)[C@H]3CC[C@]12C [Finasteride] | 80 | > 100 | > 100 | > 100 |  |
| O=C(NCC1CCCCN1)c1cc(OCC(F)(F)F)ccc1OCC(F)(F)F (stereo not drawn) [Flecainide] | 80 | > 100 | > 100 | > 100 |  |
| CO[C@H]1O[C@H](COS(=O)(=O)O)[C@@H](O[C@@H]2O[C@@H](C(=O)O)[C@@H](O[C@H]3O[C@H](COS(=O)(=O)O)[C@@H](O[C@@H]4O[C@H](C(=O)O)[C@@H](O[C@H]5O[C@H](COS(=O)(=O)O)[C@@H](O)[C@H](O)[C@H]5NS(=O)(=O)O)[C@H](O)[C@H]4O)[C@H](OS(=O)(=O)O)[C@H]3NS(=O)(=O)O)[C@H](O)[C@H]2OS(=O)(=O)O)[C@H](O)[C@H]1NS(=O)(=O)O [Fondaparinux] | > 100 | > 100 | > 100 | > 100 |  |
| O=C(CCCN1CCC(O)(c2ccc(Cl)cc2)CC1)c1ccc(F)cc1 [Haloperidol] | 22 | 8 |  | 30 |  |
| CC(=O)[C@]1(O)Cc2c(O)c3c(c(O)c2[C@@H](O[C@H]2C[C@H](N)[C@H](O)[C@H](C)O2)C1)C(=O)c1ccccc1C3=O [Idarubicin] | 4.3 | 2.5 | 10 | 8 |  |
| Cc1ccc(NC(=O)c2ccc(CN3CCN(C)CC3)cc2)cc1Nc1nccc(-c2cccnc2)n1 [Imatinib] | 7 | 8 |  |  |  |
| CC(C)NCC(O)c1ccc(O)c(O)c1 (stereo not drawn) [Isoprenaline] | > 100 | > 100 | > 100 | > 100 |  |
| CNCCCC12CCC(c3ccccc31)c1ccccc12 [Maprotiline] | 6 | 9 |  |  |  |
| COc1c2occc2cc2ccc(=O)oc12 [Methoxsalen] | 150 | 150 | 150 |  |  |
| CC(C)(C)NCC(O)COc1cccc2c1CC(O)C(O)C2 (stereo not drawn) [Nadolol] | > 100 | > 100 | > 100 | > 100 |  |
| CCCCC[C@H](O)/C=C/[C@@H]1[C@H]2C/C(=C/CCCC(=O)O)O[C@H]2C[C@H]1O [Prostacyclin] | > 100 | > 100 | > 100 | > 100 |  |
| C=C[C@H]1C[N@@]2CC[C@H]1C[C@@H]2[C@@H](O)c1ccnc2ccc(OC)cc12 [Quinidine] | 30 | 30 | > 100 |  |  |
| CNC(=O)c1cc(Oc2ccc(NC(=O)Nc3ccc(Cl)c(C(F)(F)F)c3)cc2)ccn1 [Sorafenib] | 7.9 | 7.9 | 65 | 15 |  |
| C=CC[C@@H]1/C=C(\C)C[C@H](C)C[C@H](OC)[C@H]2O[C@@](O)(C(=O)C(=O)N3CCCC[C@H]3C(=O)O[C@H](/C(C)=C/[C@@H]3CC[C@@H](O)[C@H](OC)C3)[C@H](C)[C@@H](O)CC1=O)[C@H](C)C[C@@H]2OC [Tacrolimus] | 30 | 40 | 55 | 30 |  |
| C[C@]12C=CC(=O)C=C1CC[C@H]1[C@@H]3C[C@@H](O)[C@](O)(C(=O)CO)[C@@]3(C)C[C@H](O)[C@@]12F [Triamcinolone] | > 100 | > 100 | > 100 | > 100 |  |
| COc1ccc(CCN(C)CCCC(C#N)(c2ccc(OC)c(OC)c2)C(C)C)cc1OC (stereo not drawn) [Verapamil] | 40 | 45 |  |  |  |
